In paper PMC10610289, “Novel Baicalein-Derived Inhibitors of Plasmodium falciparum” (Pathogens, 2023):

Assays:
[1] = tested on: Dd2 (wt); assay: Cross-resistance panel, Dd2 wt; type: cell-based, Plasmodium falciparum; details: strain Dd2 wt
Description: (§1) Parasite lines used in the study were P. falciparum 3D7 (Pf3D7 Chloroquine-sensitive) and Plasmodium falciparum K1 (PfK1 Chloroquine-resistant) sourced from the Malaria Research and Reference Reagent Resource Center (MR4), ATCC, Manassas, VA, USA. FNDR-10132 was tested against a cross-resistance panel at Swiss TPH, Allschwil, Switzerland.

[2] = tested on: Dd2 DSM265 (Pfdhodh); assay: Cross-resistance panel, Dd2 DSM265; type: cell-based, Plasmodium falciparum
Description: as §1

[3] = tested on: Dd2 GNF156 (Pfcarl Ile1139Lys); assay: Cross-resistance panel, Dd2 GNF156; type: cell-based, Plasmodium falciparum
Description: as §1

[4] = tested on: Dd2 ELQ300 (PfcytB Ile22Leu); assay: Cross-resistance panel, Dd2 ELQ300; type: cell-based, Plasmodium falciparum
Description: as §1

[5] = tested on: resistant strains of P. falciparum; assay: Cross-resistance panel, all mutants/strains tested; type: cell-based; details: Plasmodium falciparum, read-out: antimalarial activity range against all mutants/strains tested
Description: as §1

[6] = Microsomal stability assay; type: in vitro ADME, mouse; details: 37 °C
Description: Dipotassium hydrogen phosphate, Potassium dihydrogen phosphate, and formic acid were obtained from Merck, Rahway, NJ, USA. Methanol–acetonitrile was procured from Biosolve Chimie, Dieuze, France. Mouse liver microsomes, 20 mg/mL, were received from a third-party vendor in India. Imipramine HCl (catalog no. I0971) and Carbamazepine (catalog no. O0363) were procured from TCI, Gurugram, India. ß-NADPH (product code-99197) was procured from Sisco Research Laboratories, Mumbai, India.
The in vitro metabolic stability was determined in mouse liver microsomes. To prepare a mouse liver microsomes (MLM) homogenate, 100 µL of microsomes was resuspended in 100 mM phosphate buffer (0.607 g K2HPO4 and 0.212 g KH2PO4 dissolved in 50 mL of de-ionized water), achieving a working concentration of 0.625 mg/mL. Positive control (Imipramine) and test compounds (FNDR-10132, 10136, 10139, and 10999) were spiked individually into the MLM homogenate at a final concentration of 1 µm. To pre-incubate, they were placed in a water bath at 37 °C for 5 min. At least 30 µL was collected in triplicates (0 min samples), and the reaction was quenched using 90 µL of acetonitrile, which contained 500 ng/mL of Carbamazepine as an internal standard. Nicotinamide Adenine Dinucleotide Phosphate (NADPH) in phosphate buffer was added to the remaining MLM at a 1 mM final concentration and further incubated at 37 °C. At the indicated time intervals, 30 µL aliquots were sampled in triplicates, and the reaction was quenched with acetonitrile containing Carbamazepine as the internal standard. The samples were centrifugated for 10 min at 13,000 rpm, and the supernatant was separated for further analysis.
The analytical method for microsomal stability and protein binding assay is as follows: Chromatographic elution was achieved following isocratic flow on an X-Terra MS C18 50 × 4.6 mm, 2.5 µm, Waters, USA, maintained at 40 °C. The mobile phase contained aqueous 0.1% formic acid in water in solvent A and acetonitrile acidified with 0.1% formic acid in solvent B delivered at 0.300 mL/min. The flow was 15% from solvent A and 85% from solvent B for 4.5 min. A total of 7 μL of the sample was injected for the assay. […] Detection was performed through multiple reaction monitoring (MRM). The ion transitions are as follows: Imipramine, FNDR-10132, FNDR-10136, FNDR-10139, FNDR-10999, and IS at m/z 281.1→86.0, 355.2→115.1, 354.0→298.0, 350.0→186.1, 349→305.2, and m/z 237.0→194.0, respectively. An optimized cone voltage and collision energy were used to ionize the compounds. The MS parameters follow as follows: cone gas flow 50 (L/h); ion source temperature 150 °C; desolvation gas flow 900 (L/h); desolvation temperature 400 °C; and collision gas flow 0.10 (mL/min).

[7] = tested on: Vero cells; assay: Cytotoxicity assay against Vero cell line; type: cell-based; details: 72 h, resazurin (CC50)
Description: Vero cells were initially washed with PBS and trypsinized, and a 1 × 10^5 cells/mL suspension was prepared. A total of 100 µL of a cell suspension was distributed to each well of the 96-well microtiter plates and allowed to adhere overnight. The next day, serial dilutions of selected test compounds were made in the plates and incubated for 72 h. After 72 h, a ten-microliter resazurin solution (12.5 mg/100 mL PBS) was added to each well. After 3 h, plates were read using a fluorescence reader (Biotek) at an excitation wavelength of 530 nm and an emission wavelength of 590 nm (Sperandeo and Brun, 2003). The MS-EXEL template determined the cytotoxic concentration (CC50) for selected compounds.

[8] = tested on: Plasmodium yoelii N67 (Chloroquine-resistant); assay: In vivo antimalarial assay in Swiss mice; details: 100 mg/kg ×4 days, oral
Description: All animal experiments were performed following the institutional animal ethics committee (IAEC). Laboratory-bred Swiss albino mice (both male and female) weighing 20–22 g were obtained from breeding colonies at the National Laboratory Animal Centre at the CSIR-CDRI, Lucknow, with due permission from the animal ethics committee (IAEC/2018/16/Renew-1/Dated-05/04/2019). The rodent malaria parasite Plasmodium yoelii N67 (chloroquine-resistant) was used for the study. This parasite was maintained by serial passage in healthy Swiss mice of either sex.
Swiss mice were inoculated with a standard inoculum of 1 × 106 P. yoelii N67 parasitized erythrocytes intraperitoneally. The 22-gauge hypodermic needle was used to infect the mice and was injected with a 0.5 mL (infected RBCs) volume. Treatment was initiated from day 0 to day 3 (total 4 days) once daily, and different routes of administration, viz., oral, intravenous, intraperitoneally, and subcutaneous, were used. For in vivo evaluation, compounds were dissolved in 300 µL of DMSO and were made up with MilliQ. The efficacy of in vitro active compounds was evaluated for in vivo activity at different doses, and the desired daily dose was administered in a 0.2 mL volume. A drop of blood from the mice’s tails was collected regularly throughout the experiment for parasitemia estimation. The group’s mean value was calculated using the percentage suppression of parasitemia compared with the untreated control group.

CCCCCCc1ccc(-c2cc(=O)c3c(O)c(O)c(O)cc3o2)cc1 [FNDR-10132]
IC50 ([1]; Plasmodium falciparum): 328 nM | Fold shift IC50 rel. Dd2 [1]: 1.0 | IC50 ([2]; Plasmodium falciparum): 260 nM | Fold shift IC50 rel. Dd2 ([2]; strain Dd2 DSM265): 0.8 | IC50 ([3]; Plasmodium falciparum, DD2): 292 nM | Fold shift IC50 rel. Dd2 ([3]; strain Dd2 GNF156): 0.9 | IC50 ([4]; Plasmodium falciparum, DD2): 238 nM | Fold shift IC50 rel. Dd2 ([4]; strain Dd2 ELQ300): 0.7 | IC50 [5]: 200 to 300 nM | stability in mouse liver microsomes (in words) ([6]; 60 min, ß-NADPH): moderate stability | Microsomal Stability (Mouse) ([6]; at 30 min, 1 µM, NADPH): 99% | Cytotoxicity Vero Cell [7]: 174 µM | % Parasitemia ± S.D on Day 4 [8]: 8.5 ± 1.39 (4) % | % Parasitemia ± S.D on Day 7 [8]: 26.15 ± 8.70 (4) % | % Parasitemia ± S.D on Day 10 [8]: 24.07 ± 3.69 (3) % | % Parasitemia ± S.D on Day 14 [8]: 46.5 ± 4.2 (2) % | % Parasitemia ± S.D on Day 21 [8]: Dead | Mean Survival Time (MST) Days ± SD [8]: 13.5 ± 2.3 days | Day 4 % Suppression ([8]; Swiss mice): 44%
